According to PMC9572513, “Novel Unsymmetric 3,5-Bis(benzylidene)-4-piperidones That Display Tumor-Selective Toxicity” (Molecules, 2022):
Like-named read-outs stand apart in the source and are kept apart here. One block for each compound: values may come before it.

Columns and labels:
[1] = system: human oral squamous carcinoma; parameters: method as in PMID 32858984, PMID 31892556; conditions: cited from earlier work
[2] = system: Ca9-22 squamous cell carcinoma cells; assay: MTT cytotoxicity against Ca9-22 squamous cell carcinoma; format: cell-based, human
Procedure: (§1) The method for evaluating 2a–f and 3a–e against human oral squamous cell carcinoma (OSCC) cell lines (Ca9-22, HSC-2, HSC-3, HSC-4) and human non-malignant oral cells [human gingival fibroblast (HGF), human periodontal ligament fibroblast (HPLF), and human pulp cell (HPC)] have been reported previously, except the length of time of this bioassay was extended from 24 h to 48 h. In brief, different quantities of the compounds were incubated with the cells in Dulbecco’s modified eagle medium (DMEM), which was supplemented with 10% FBS and antibiotics. The cell viability was determined by the 3-(4,5-dimethylthiazol-2-yl)-2,5-diphenyl-2H-tetrazolium bromide (MTT) method as summarized previously (Figure 4).

[3] = system: HCT116 colon cancer cells; assay: Cytotoxicity against HCT116 colon cancer cells; format: cell-based, human
Procedure: (§2) The culture medium was supplemented with 10% heat-inactivated fetal bovine serum (FBS) and 1% penicillin–streptomycin antibiotics. The time of the bioassays was 48 h. The determinations were undertaken in triplicate on three different occasions.

[4] = system: HSC-2 squamous cell carcinoma cells; assay: MTT cytotoxicity against HSC-2 squamous cell carcinoma; format: cell-based, human
Procedure: as §1

[5] = system: Ca9-22 cells; assay: Western blot for caspase 3 activation in Ca9-22 cells; format: cell-based, human; conditions: 3 μM, 24 h
Procedure: (§3) Apoptosis induction in Ca9-22 cells was evaluated by cell cycle analysis and Western blot analysis as described previously (Figure 5). Briefly, for the cell cycle analysis, cells were treated for 24 h with the test samples. Cells were then fixed, digested with RNase A, stained with propidium iodide, filtered through Falcon® cell trainers (Corning Inc., Corning, NY, USA), and then subjected to cell sorting. For the Western blot, cell lysates (equivalent to 5 µg protein) were applied to SDS-polyacrylamide gel electrophoresis. A literature method was used to determine whether representative compounds led to increases in the production of ROS [29]. In brief, CEM cells were treated with the compounds overnight, then with 6-carboxy-2′,7′-dichlorodihydrofluorescein diacetate (carboxy-H2DCFDA) and the samples were processed using flow cytometry.

[6] = MTT cytotoxicity against human pulp cell (HPC); format: cell-based; conditions: human, human pulp cells (HPC), non-malignant oral cells
Procedure: as §1

[7] = MTT cytotoxicity against human periodontal ligament fibroblast (HPLF); format: cell-based; conditions: human, human periodontal ligament fibroblasts (HPLF), non-malignant oral cells
Procedure: as §1

[8] = system: CEM cells; assay: Differential DNA staining (DNS) cytotoxicity assay, CEM cells; format: cell-based; conditions: Homo sapiens, CCRF-CEM
Procedure: (§4) The method used for generating the data of human acute lymphocytic leukemia (CEM) and human acute promyelocytic leukemia (HL-60) cells in Table 4 has been described previously. In brief, the cells were cultured in media supplemented with 10% FBS and antibiotics. […] The CC50 values of the compounds listed in Table 4 were obtained by linear interpolation equations [28, 29].

[9] = system: CRL1790 non-malignant colon cells; assay: Cytotoxicity against CRL1790 non-malignant colon cells; format: cell-based; conditions: Homo sapiens, 48 h
Procedure: as §2

[10] = system: HSC-4 squamous cell carcinoma cells; assay: MTT cytotoxicity against HSC-4 squamous cell carcinoma; format: cell-based, human
Procedure: as §1

[11] = system: CEM cells; assay: ROS production in CEM cells (carboxy-H2DCFDA, flow cytometry); format: cell-based, human; conditions: CC50 and twice the CC50 concentrations
Procedure: as §3

[12] = system: HSC-3 squamous cell carcinoma cells; assay: MTT cytotoxicity against HSC-3 squamous cell carcinoma; format: cell-based, human
Procedure: as §1

[13] = system: HCT116 and HT29 colon cancer cells; assay: Average over HCT116 and HT29 colon cancer cells; format: cell-based, human
Procedure: as §2

[14] = system: CEM cells; assay: Mitochondrial membrane potential in CEM cells (JC-1, flow cytometry); format: cell-based, human; conditions: 7 h
Procedure: The effect on the mitochondrial membrane potential in CEM cells was undertaken using a published method. In brief, the cells were incubated with different compounds for 7 h. The cells were then stained with the JC-1 dye, and the samples were examined by flow cytometry. The results are portrayed in Figure 6C.

[15] = system: CEM cells; assay: Annexin V-FITC apoptosis assay in CEM cells; format: cell-based, human; conditions: CC50 and twice the CC50 concentrations, 24 h
Procedure: In order to discover if representative compounds induce apoptosis, the annexin V-FITC assay was used. In brief, CEM cells were treated with various compounds for 24 h. The cells were collected and stained with propidium iodide and annexin V-FITC.

[16] = system: HL-60 cells; assay: Differential DNA staining (DNS) cytotoxicity assay, HL-60 cells; format: cell-based; conditions: Homo sapiens
Procedure: as §4

[17] = MTT cytotoxicity against human gingival fibroblast (HGF); format: cell-based; conditions: human, human gingival fibroblasts (HGF), non-malignant oral cells
Procedure: as §1

[18] = system: HT29 colon cancer cells; assay: Cytotoxicity against HT29 colon cancer cells; format: cell-based, human
Procedure: as §2

[19] = Average over HGF, HPLF and HPC non-malignant oral cells; format: cell-based, human; conditions: human, HPLF and HPC non-malignant oral cells (average), average of HGF
Procedure: as §1

[20] = system: Ca9-22, HSC-2, HSC-3, and HSC-4 squamous cell carcinoma cell lines; assay: Average over Ca9-22, HSC-2, HSC-3 and HSC-4 OSCC cell lines; format: cell-based, human
Procedure: as §1

Compound: COc1ccc2c(=O)c(/C=C/c3ccc(O)cc3)coc2c1 [3-[(1E)-2-(4-hydroxyphenyl)ethenyl]-7-methoxy-4H-1-benzopyran-4-one]
SI (tumor specificity) [1]: 182

Compound: COc1ccc2c(=O)c(/C=C/c3ccccc3)coc2c1 [7-methoxy-3-[(1E)-2-phenylethenyl]-4H-1-benzopyran-4-one]
SI (tumor specificity) [1]: 301

IC50 ([13]; Homo sapiens, average of HCT116 and HT29, unit printed only for the single cell-line columns): 1770 nM
Compound: COc1ccc(C=C2CNCC(=Cc3ccc(O)c(CN(C)C)c3)C2=O)cc1OC.Cl.Cl [Compound 2a, 3-(3,4-Dimethoxybenzylidene)-5-(3-((dimethylamino)methyl)-4-hydroxybenzylidene)-4-piperidone dihydrochloride]
CC50 ([2]; Homo sapiens, Ca9-22, 48 h, MTT, read-out: Ca9-22 CC50): 680 nM | Ca9-22 SI ([2]; average CC50 HGF/HPLF/HPC divided by CC50 Ca9-22): 11.4 | IC50 ([3]; Homo sapiens, HCT-116, 48 h, 48 h): 1730 ± 480 nM | HCT116 SI (selectivity index) ([3]; IC50 CRL1790 / IC50 HCT116): 10.1 | CC50 ([4]; Homo sapiens, HSC-2, 48 h, MTT, read-out: HSC-2 CC50): 1200 nM | HSC-2 SI ([4]; average CC50 HGF/HPLF/HPC divided by CC50 HSC-2): 6.44 | caspase 3 activation (cleavage of PARP and procaspase) [5]: induced | CC50 at 48 h [6]: 2300 nM | CC50 at 48 h [7]: 5 µM | CC50 ([8]; 24 h, read-out: CC50 CEM Cells 24 h): 1640 ± 680 nM | CC50 ([8]; 48 h, read-out: CC50 CEM Cells 48 h): 820 ± 20 nM | IC50 [9]: 17.5 ± 0.58 µM | CC50 ([10]; Homo sapiens, HSC-4, 48 h, MTT, read-out: HSC-4 CC50): 1390 nM | HSC-4 SI ([10]; average CC50 HGF/HPLF/HPC divided by CC50 HSC-4): 5.56 | ROS generation [11]: generate ROS | CC50 ([12]; Homo sapiens, HSC-3, 48 h, MTT, read-out: HSC-3 CC50): 1060 nM | HSC-3 SI ([12]; average CC50 HGF/HPLF/HPC divided by CC50 HSC-3): 7.29 | Average SI ([13]; average of SI for HCT116 and HT29): 9.91 | PSE (potency-selectivity expression) ([13]; reciprocal of average IC50 x average SI x 100, colon cells): 560 | depolarization of the mitochondrial membrane potential [14]: induced | apoptotic cells [15]: approximately 30% | CC50 ([16]; HL-60, 24 h, read-out: CC50 HL-60 Cells 24 h): 1990 ± 920 nM | CC50 ([16]; HL-60, 48 h, read-out: CC50 HL-60 Cells 48 h): 2210 ± 370 nM | CC50 at 48 h [17]: 15.9 µM | IC50 ([18]; Homo sapiens, HT-29, 48 h, 48 h): 1800 ± 1240 nM | HT29 SI (selectivity index) ([18]; IC50 CRL1790 / IC50 HT29): 9.72 | CC50 at 48 h [19]: 7.73 µM | CC50 ([20]; Homo sapiens, average of four OSCC cell lines, read-out: Average CC50): 1080 nM | Average SI ([20]; average of SI for four OSCC cell lines): 7.67
